Laboratory results: US20230150926A1, “CATIONIC LIPIDS FOR LIPID NANOPARTICLE DELIVERY OF THERAPEUTICS TO HEPATIC STELLATE CELLS” (GENEVANT SCIENCES GMBH, priority 2020, published 2023)

Tests used:
[1] = tested on: reelin mRNA (RELN), a stellate cell target; experiment: Reelin (RELN) mRNA knock-down in liver after IV administration of siRNA LNP (QuantiGene, RELN:GAPD mRNA ratio); type: in vivo, Balb/C mice; settings: for reelin mRNA knock-down, activity at high dose: 1 mg/kg dose and greater
Protocol: The lipid solution contained 4 components: a PEG-conjugated lipid, an ionizable lipid, cholesterol, and a phospholipid (e.g., DSPC). Lipid stocks were prepared using the lipid identities and molar ratios as described. The siRNA was diluted in 100 mM acetate, pH 4 buffer to prepare lipid nanoparticles (LNP) at a total lipid to siRNA weight ratio of approximately 10:1 to 20:1. Equal volumes of the lipid and nucleic acid solutions were blended at a flow rate of 400 mL/min through a T-connector, and diluted into PBS, pH 7.4. The ethanol was then removed and the external buffer replaced with Tris/NaCl buffer by dialysis. Following dialysis, the formulations were concentrated using VivaSpin concentrator units (MWCO 100,000) and filtered through a 0.2 µm pore sterile filter. Nucleic acid concentration was determined by the RiboGreen assay. Particle size and polydispersity were determined using a Malvern Nano Series Zetasizer.
Generally, the LNP formulations were injected intravenously at 0.025 mg/kg to female Balb/C mice (5-8 weeks old) to measure activity of the HSC-LNP. Just prior to injection, the siRNA LNP stocks were filtered and diluted down to the required dosing concentration. […] Half the left lateral lobe of the liver was collected into 1.5 mL RNALater and stored at 2-8° C. overnight. The next day, an approximately 20-25 mg piece of liver was homogenized and the liver lysate used in a QuantiGene Assay, testing for relative levels of mouse target mRNA and GAPDH expression. Data from each animal was normalized to the liver weight used in the assay, and then relative to the GAPDH signal; data is reported as the average % knockdown of each group (where the PBS control group is 100% gene expression, 0% knockdown).

[2] = Tolerability assessment: serum liver enzyme levels (ALT/AST) after IV administration of LNP; type: in vivo, Balb/C mice; settings: FIG. 4; 24 hours following IV administration of LNP; 0.03, 1, 3 mg/kg; relative to comparator lipid
Protocol: Generally, the LNP formulations were injected intravenously at ~0.03 to 3 mg/kg to female Balb/C mice (5-8 weeks old) to assess tolerability of the HSC-LNP. Just prior to injection, the siRNA LNP stocks were filtered and diluted down to the required dosing concentration. At 2 h post-treatment, blood was collected via tail nicks and processed to plasma (for cytokine analysis by ELISA). At the terminal timepoint (24 h post-dose), blood was collected by cardiac puncture (target ≥ 800 µL) and sent to IDEXX for CRES 15 panel analysis (CBC/Diff & Clin Chem analysis). Briefly, blood (~300 uL) was collected into EDTA microtainer tubes, inverted 10x to mix the K2EDTA whole blood sample, and immediately stored at 4° C. to await same-day shipment to for hematology analysis. The remaining blood volume (~500 uL) was collected into serum separator tubes and inverted 5× to mix the SST sample, then allowed to clot for 1-1.5 h at room temp. The blood samples were centrifuged, and serum was collected for clinical chemistry analysis.

[3] = FIG. 3, 24 hours following IV administration of LNP

Row | SMILES | reelin mRNA knock-down, activity at high dose [1, 3] | liver enzyme levels (ALT/AST) in serum [2] | knock-down as indicated by the RELN:GAPD mRNA ratio ([1]; FIG. 1, 0.1 mg/kg, versus comparator lipid and PBS) | reelin mRNA knock-down, potency relative to comparator lipid ([1]; FIG. 2, 48 hours following IV administration of LNP, Balb/C mice (n=4)) | reelin mRNA knock-down, potency relative to comparator lipid ([1]; FIG. 3, 24 hours following IV administration of LNP, low dose of 0.03 mg/kg) | potency relative to comparator lipid, as restated in the tolerability figure ([1]; FIG. 4 legend, no dose stated)
1 | CCCCC/C=C\CCCC(CCC/C=C\CCCCC)C(CCC/C=C\CCCCC)OC(=O)CCCCCN(C)C (stereo not shown) [compound 100, reference compound] | Saturating activity | – | – | – | – | –
2 | CCCCC/C=C\CCCC(=O)OC(CCC/C=C\CCCCC)C(CCC/C=C\CCCCC)OC(=O)CCCCCN(C)C (stereo not shown) [representative lipid of the invention] | Saturating activity | slightly higher liver enzyme levels relative to the comparator lipid | excellent knock-down | equivalent potency to a comparator lipid at 4-fold lower dose | significantly more potent than the comparator lipid | significantly more potent
